Data from patent US10683272B2 (THE JOHNS HOPKINS UNIVERSITY, priority 2014, dated 2020).
Like-named read-outs stand apart in the source and are kept apart here.

Key:
[1] = tested on: PC-3 PIP and PC-3 flu tumors
[2] = tested on: PSMA+ PIP and PSMA− flu mouse xenografts; settings: for uptake in PSMA+ tumor: n=4, text b326
Procedure: In vivo evaluation was performed in standard PSMA+ PIP and PSMA− flu mouse xenografts and by performing SPECT imaging with a VECT or instrument with an extra ultra-high sensitivity mouse collimator as disclosed FIG. 25A, FIG. 25B and FIG. 25C.

[3] = tested on: PSMA+ PIP and PSMA− flu cells; assay: cell uptake and internalization study of ^177Lu-SRVI71; format: cell-based
PSMA = PSMA (Homo sapiens, UniProt Q04609); assay: PSMA inhibitory activities, fluorescence-based assay (Example 3); format: biochemical
Procedure: PSMA inhibitory activities were determined using a fluorescence-based assay (Banerjee, Pullambhatla, Byun, et al., 2011). Enzyme inhibitory constants (Ki values) were generated using the Cheng-Prusoff conversion (Cheng and Prusoff, 1973). Sub-lines of the androgen independent PC-3 human prostate cancer xenograft were used (Banerjee, Pullambhatla, Byun, et al., 2011). Those sub-lines have been modified to express high (PC-3 PIP) or naturally produce low (PC-3 flu) levels of PSMA (Dr. Warren Heston, Cleveland Clinic, Cleveland, Ohio).

Chain of PSMA (Q04609 whole entry): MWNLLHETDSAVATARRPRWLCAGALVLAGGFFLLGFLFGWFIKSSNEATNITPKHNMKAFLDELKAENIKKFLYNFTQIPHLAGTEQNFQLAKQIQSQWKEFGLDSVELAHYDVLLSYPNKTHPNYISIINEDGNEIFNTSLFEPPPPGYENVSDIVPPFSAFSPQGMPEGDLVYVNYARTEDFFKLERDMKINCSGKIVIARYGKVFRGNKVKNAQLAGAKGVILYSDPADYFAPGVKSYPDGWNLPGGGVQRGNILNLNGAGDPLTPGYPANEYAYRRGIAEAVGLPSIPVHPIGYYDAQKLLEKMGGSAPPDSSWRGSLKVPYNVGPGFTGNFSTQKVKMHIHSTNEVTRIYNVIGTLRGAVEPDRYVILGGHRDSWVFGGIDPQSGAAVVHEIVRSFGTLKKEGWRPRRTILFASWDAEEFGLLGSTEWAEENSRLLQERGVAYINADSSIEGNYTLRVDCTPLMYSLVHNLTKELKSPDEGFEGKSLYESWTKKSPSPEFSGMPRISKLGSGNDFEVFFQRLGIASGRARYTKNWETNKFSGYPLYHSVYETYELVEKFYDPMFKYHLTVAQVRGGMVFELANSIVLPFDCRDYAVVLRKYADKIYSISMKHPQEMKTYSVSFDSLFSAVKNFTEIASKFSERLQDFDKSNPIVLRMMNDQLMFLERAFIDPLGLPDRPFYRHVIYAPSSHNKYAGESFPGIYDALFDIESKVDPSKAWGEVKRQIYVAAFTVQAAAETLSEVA

## NC(=O)CN1CCN(CC(N)=O)CCN(CC(N)=O)C(Cc2ccc(NC(=S)NCCCCNC(=O)CCCCCCC(=O)NCCCC[C@H](NC(=O)N[C@@H](CCC(=O)O)C(=O)O)C(=O)O)cc2)CN(CC(N)=O)CC1.[203Pb+2] (stereo partly drawn) [^203Pb-SR-IX-11]
[1]; 2 H
  PIP/flu ratio: 114
  Tissue biodistribution, Blood: 0.07 ± 0.01
  Tissue biodistribution, PC-3 PIP: 21.64 ± 1.23
  Tissue biodistribution, PC-3 flu: 0.19 ± 0.04
  Tissue biodistribution, Sm intestine: 0.25 ± 0.15
  Tissue biodistribution, bladder: 8.64 ± 0.77
  Tissue biodistribution, fat: 1.54 ± 1.64
  Tissue biodistribution, heart: 0.07 ± 0.01
  Tissue biodistribution, kidney: 3.61 ± 0.81
  Tissue biodistribution, liver: 0.21 ± 0.01
  Tissue biodistribution, lung: 0.24 ± 0.03
  Tissue biodistribution, muscle: 0.78 ± 0.83
  Tissue biodistribution, pancreas: 0.06 ± 0.00
  Tissue biodistribution, salivary gland: 0.35 ± 0.10
  Tissue biodistribution, spleen: 0.25 ± 0.1
  Tissue biodistribution, stomach: 0.12 ± 0.00

## O=C([O-])CN1CCN(CC(=O)[O-])CCN(CC(=O)[O-])C(Cc2ccc(NC(=S)NCCCCNC(=O)CCCCCCC(=O)NCCCC[C@H](NC(=O)N[C@@H](CCC(=O)O)C(=O)O)C(=O)O)cc2)CN(CC(=O)[O-])CC1.[177Lu+3] (stereo partly drawn) [^177Lu-SR-VI-71]
[2]; 2 h
  PIP:flu ratio: ~180
  kidney uptake: 89.3±28.9%
  uptake in PSMA+ tumor: 59.1±12.8 % ID/g
[2]; 3 h
  Tissue biodistribution, Blood: 0.14 ± 0.04
  Tissue biodistribution, Flu tumor: 0.14 ± 0.03
  Tissue biodistribution, PIP tumor: 41.46 ± 7.88
  Tissue biodistribution, SI: 0.23 ± 0.12
  Tissue biodistribution, heart: 0.09 ± 0.04
  Tissue biodistribution, kidney: 53.66 ± 9.64
  Tissue biodistribution, liver: 0.31 ± 0.25
  Tissue biodistribution, lung: 0.62 ± 0.31
  Tissue biodistribution, muscle: 0.24 ± 0.14
  Tissue biodistribution, salivary gland: 0.42 ± 0.09
  Tissue biodistribution, spleen: 1.83 ± 0.38
[2]; 24 h
  Tissue biodistribution, Blood: 0.03 ± 0.03
  Tissue biodistribution, Flu tumor: 0.09 ± 0.01
  Tissue biodistribution, PIP tumor: 27.52 ± 1.19
  Tissue biodistribution, SI: 0.10 ± 0.05
  Tissue biodistribution, heart: 0.04 ± 0.00
  Tissue biodistribution, kidney: 4.35 ± 0.41
  Tissue biodistribution, liver: 0.38 ± 0.35
  Tissue biodistribution, lung: 0.25 ± 0.026
  Tissue biodistribution, muscle: 0.04 ± 0.00
  Tissue biodistribution, salivary gland: 0.07 ± 0.08
  Tissue biodistribution, spleen: 0.74 ± 0.64
  kidney uptake: 6.29±3.4 % ID/g
  uptake in PSMA+ tumor: 40.6±5.8 ID/g
[2]; 48 h
  Tissue biodistribution, Blood: 0.03 ± 0.03
  Tissue biodistribution, Flu tumor: 0.05 ± 0.00
  Tissue biodistribution, PIP tumor: 16.99 ± 2.65
  Tissue biodistribution, SI: 0.04 ± 0.01
  Tissue biodistribution, heart: 0.02 ± 0.00
  Tissue biodistribution, kidney: 2.35 ± 0.62
  Tissue biodistribution, liver: 0.11 ± 0.07
  Tissue biodistribution, lung: 0.06 ± 0.04
  Tissue biodistribution, muscle: 0.02 ± 0.00
  Tissue biodistribution, salivary gland: 0.10 ± 0.04
  Tissue biodistribution, spleen: 0.17 ± 0.05
[2]; 72 h
  Tissue biodistribution, Blood: 0.01 ± 0.01
  Tissue biodistribution, Flu tumor: 0.04 ± 0.00
  Tissue biodistribution, PIP tumor: 15.63 ± 4.62
  Tissue biodistribution, SI: 0.05 ± 0.03
  Tissue biodistribution, heart: 0.03 ± 0.01
  Tissue biodistribution, kidney: 2.59 ± 1.10
  Tissue biodistribution, liver: 0.05 ± 0.03
  Tissue biodistribution, lung: 0.03 ± 0.02
  Tissue biodistribution, muscle: 0.01 ± 0.01
  Tissue biodistribution, salivary gland: 0.09 ± 0.04
  Tissue biodistribution, spleen: 0.09 ± 0.08
[2]; 96 h
  Tissue biodistribution, Blood: 0.00 ± 0.00
  Tissue biodistribution, Flu tumor: 0.03 ± 0.0
  Tissue biodistribution, PIP tumor: 9.04 ± 1.72
  Tissue biodistribution, SI: 0.01 ± 0.00
  Tissue biodistribution, heart: 0.01 ± 0.00
  Tissue biodistribution, kidney: 1.44 ± 0.11
  Tissue biodistribution, liver: 0.04 ± 0.0
  Tissue biodistribution, lung: 0.05 ± 0.01
  Tissue biodistribution, muscle: 0.01 ± 0.0
  Tissue biodistribution, salivary gland: 0.06 ± 0.02
  Tissue biodistribution, spleen: 0.06 ± 0.03
[3]; 0.01-10 μCi, PSMA+ PIP vs PSMA− flu
  cell uptake: high uptake in PSMA+ PIP and negligible uptake in PSMA− flu tumor
[3]; co-incubation of 10 μM of ZJ43
  blockade of uptake in PSMA+ cells: ~90%
[3]; internalization study
  fraction of total cell associated radioactivity internalized: ~44%

## O=C(O)CC[C@H](NC(=O)N[C@@H](CCCCNC(=O)CCCCCCC(=O)NCCCCNC(=S)Nc1ccc(CC2CN(CC(=O)O)CCN(CC(=O)O)CCN(CC(=O)O)CCN2CC(=O)O)cc1)C(=O)O)C(=O)O.[203Pb+2] (stereo partly drawn) [^203Pb-SR-VI-71]
[1]; 1 H
  PIP/flu ratio: 98
  Tissue biodistribution, Blood: 0.60 ± 0.05
  Tissue biodistribution, PC-3 PIP: 41.88 ± 7.60
  Tissue biodistribution, PC-3 flu: 0.43 ± 0.11
  Tissue biodistribution, Sm intestine: 0.31 ± 0.05
  Tissue biodistribution, bladder: 5.96 ± 2.24
  Tissue biodistribution, fat: 0.77 ± 0.29
  Tissue biodistribution, heart: 0.30 ± 0.03
  Tissue biodistribution, kidney: 75.18 ± 9.94
  Tissue biodistribution, liver: 1.09 ± 0.07
  Tissue biodistribution, lung: 1.20 ± 0.19
  Tissue biodistribution, muscle: 0.22 ± 0.14
  Tissue biodistribution, pancreas: 0.49 ± 0.09
  Tissue biodistribution, salivary gland: 1.78 ± 0.69
  Tissue biodistribution, spleen: 5.07 ± 1.68
  Tissue biodistribution, stomach: 0.30 ± 0.04
[1]; 2 H
  PIP/flu ratio: 130
  Tissue biodistribution, Blood: 0.31 ± 0.04
  Tissue biodistribution, PC-3 PIP: 38.14 ± 6.30
  Tissue biodistribution, PC-3 flu: 0.29 ± 0.14
  Tissue biodistribution, Sm intestine: 0.23 ± 0.04
  Tissue biodistribution, bladder: 10.40 ± 3.21
  Tissue biodistribution, fat: 0.31 ± 0.22
  Tissue biodistribution, heart: 0.14 ± 0.06
  Tissue biodistribution, kidney: 39.35 ± 7.28
  Tissue biodistribution, liver: 1.01 ± 0.21
  Tissue biodistribution, lung: 0.64 ± 0.14
  Tissue biodistribution, muscle: 0.22 ± 0.07
  Tissue biodistribution, pancreas: 0.29 ± 0.05
  Tissue biodistribution, salivary gland: 0.93 ± 0.07
  Tissue biodistribution, spleen: 1.59 ± 0.58
  Tissue biodistribution, stomach: 0.15 ± 0.03
[1]; 4 H
  PIP/flu ratio: 178
  Tissue biodistribution, Blood: 0.24 ± 0.02
  Tissue biodistribution, PC-3 PIP: 34.74 ± 7.37
  Tissue biodistribution, PC-3 flu: 0.20 ± 0.06
  Tissue biodistribution, Sm intestine: 0.15 ± 0.04
  Tissue biodistribution, bladder: 1.94 ± 0.49
  Tissue biodistribution, fat: 0.31 ± 0.18
  Tissue biodistribution, heart: 0.09 ± 0.01
  Tissue biodistribution, kidney: 22.75 ± 6.22
  Tissue biodistribution, liver: 0.92 ± 0.09
  Tissue biodistribution, lung: 0.28 ± 0.04
  Tissue biodistribution, muscle: 0.06 ± 0.02
  Tissue biodistribution, pancreas: 0.24 ± 0.05
  Tissue biodistribution, salivary gland: 0.29 ± 0.02
  Tissue biodistribution, spleen: 0.72 ± 0.16
  Tissue biodistribution, stomach: 0.13 ± 0.03
[1]; 24 H
  PIP/flu ratio: 194
  Tissue biodistribution, Blood: 0.21 ± 0.02
  Tissue biodistribution, PC-3 PIP: 27.92 ± 7.01
  Tissue biodistribution, PC-3 flu: 0.14 ± 0.01
  Tissue biodistribution, Sm intestine: 0.04 ± 0.03
  Tissue biodistribution, bladder: 0.31 ± 0.16
  Tissue biodistribution, fat: 0.05 ± 0.06
  Tissue biodistribution, heart: 0.07 ± 0.01
  Tissue biodistribution, kidney: 7.01 ± 0.80
  Tissue biodistribution, liver: 0.64 ± 0.04
  Tissue biodistribution, lung: 0.16 ± 0.01
  Tissue biodistribution, muscle: 0.04 ± 0.03
  Tissue biodistribution, pancreas: 0.09 ± 0.06
  Tissue biodistribution, salivary gland: 0.10 ± 0.05
  Tissue biodistribution, spleen: 0.24 ± 0.02
  Tissue biodistribution, stomach: 0.07 ± 0.01

## O=C(O)CC[C@H](NC(=O)N[C@@H](CCCCNC(=O)CCCCCCC(=O)NCCCC[C@H](NC(=O)C(Cc1ccccc1)NC(=O)C(Cc1ccccc1)NC(=O)C(Cc1ccccc1)NC(=O)CN1CCN(CC(=O)O)CCN(CC(=O)O)CCN(CC(=O)O)CC1)C(=O)O)C(=O)O)C(=O)O (stereo partly drawn) [Compound 5]
PSMA
  Ki: 3.12 nM
